SMILES strings stand for the structures.

Holding throughout (assay type): cell-based, human
The subject of assay [1] is umbilical cord blood-derived CD34+ cells. Kind of assay: Cell counting: total cell number and absolute number of marker-positive cells after small molecule induction. Particulars: 6 days. As to the method:
(§1) According to the solubility and required solvent indicated in the instructions of the small molecule inhibitor (see Table 1 for the Cat. number of the small molecule inhibitor), the preparation of the small molecule inhibitor stock solution was carried out. Next, the hematopoietic stem cell medium was prepared: SFEM II medium (stem cell, Cat. number: 09655)+50 ng/ml growth factor Flt-3L (PeProtech, Cat. number: 300-100UG)+50 ng/ml growth factor SCF (PeProtech, Cat. number): 300-07-100UG)+50 ng/ml growth factor TPO (PeProtech, Cat. number: 300-18-100UG)+10 ng/ml interleukin IL-6 (PeProtech, Cat. number: 200-06-20UG)+1% bispecific antibody (HyClone, Cat. No.: sv30010). According to the set concentration gradient of the small molecule inhibitor, the stock solution and the basal medium were used to prepare the medium containing different concentrations of the small molecule inhibitor.
(§2) First, the prepared medium was added to a 24-well plate (Corning, Cat. number: 3473), 950 μl per well, and placing it in a carbon dioxide incubator (Thermo, model: 3111) to preheat; resuspending the spare umbilical cord Blood-derived HSCs of Example 1 with SFEM 11+50 ng/ml Flt-3L+50 ng/ml SCF+50 ng/ml TPO+10 ng/ml IL-6+1% bispecific antibody, calculating the medium volume to be added according to 50 μl cell suspension per well and 2*10^5/m1 cell density per well. For example, when the final volume of the cell culture solution per well was 1 ml, the total number of cells per well was 2*10^5 cells calculated according to the cell density per well, and the density of the […] of cell suspension supplemented to each well is 4*10^6/ml. The density of the spare HSCs of Example 1 was adjusted to the calculated density of the cell suspension, and adding it; taking out the preheated medium from the incubator, adding 50 μl of the cell suspension to each well, and after mixing, using the microscope (OLYMPUS, model: CKX53) to observe the cells state, and then putting it into an incubator for culturing.
On the umbilical cord blood-derived CD34+ cells sorted in Example 1, the optimal concentration of the screened-out inhibitor AG1296 was screened in the same way as in Example 2. After 6 days of induction with different concentrations of the small molecule inhibitor AG1296, the expression of LT-HSCs cell surface markers (CD34+CD45+CD90+CD45RA−CD38−) was detected by flow cytometry using the same method as in Example 3. 20 μL of cell suspension was taken to count in a cell counter (Nexcelom, model: Cellometer K2) on the 6th day of culture, calculating the absolute number of the final CD34+ cells and LT-HSCs on the 6th day (absolute number of cells=total number of cells*sternness ratio). The results were shown in FIGS. 3A-3B and FIGS. 4A-4B, respectively.

The subject of assay [2] is mobilized peripheral blood-derived CD34+ cells. Description: Flow cytometry detection of HSC stemness markers, comparison with UM171 and SR1. As to conditions: FIG. 5A; 1 μM; 8 days. As for the experimental part: as §1, §2
20 μL of cells cultured for 6-8 days (D6-D8) in the above Example 2 was sampled for counting, taking out a suspension of 2*10^5 cells into a 1.5 ml centrifuge tube according to the counting result; centrifuging at 400 g for 5 min, discarding the supernatant. 100 μL of PBS (phosphate-buffered saline solution, HyClone, Cat. number: SH30256.01) containing 1% HSA (human serum albumin, Guangdong Shuanglin, Cat. number: S10970069) was taken, resuspending the cells, and vortexing to mix well for later use. Then, the cell sample in the control was collected. The number of cells and the collection method were the same as those of the sample cells to be tested. The controls were setting as the NC group and the ISO group respectively, selecting the cells from any sample or mixed cells of the samples to be tested in this batch of experiments, depending on the number of cells.
According to Table 3 above, the antibodies were added to the cell suspensions of the above-mentioned cell samples to be tested and control cell samples according to groups; vortexing to mix and incubating at room temperature for 15 min in the dark. After 15-min incubation, 1 ml of PBS containing 1% HSA was added to each test sample, mixing well, centrifuging at 400 g for 5 min at room temperature. After centrifugation, the supernatant was discarded, and the cells were resuspended in 100 μL of PBS containing 1% HSA for each test sample. Samples were stored at room temperature away from light before testing. […]
(A flow cytometer gives signals particle by particle.)

Assay [3] shares this test system. Description: Cell counting: absolute number of marker-positive cells, comparison with UM171 and SR1. As to conditions: FIG. 5B, 8 days. As for the experimental part:
as §1, §2
On the mobilized peripheral blood-derived CD34+ cells sorted in Example 1, the screened-out inhibitor AG1296 and literature-reported (Fares I, et al. Science. 2014; Boitano A E, et al. Science. 2010) inhibitors UM171 and SR1 were compared in the same way as Example 2. Eight days after the induction of the small molecule inhibitor, the expression of LT-HSCs cell surface markers (CD34+CD45+CD90+CD45RA−CD38−) was detected by flow cytometry using the same method as in Example 3. After 8 days of culture, 20 μL of cell suspension was taken into a cell counter (Nexcelom, model: Cellometer K2) and counted, and the absolute numbers of the final CD34+ cells and LT-HSCs on […] were calculated (absolute number of cells=total number of cells*stemness ratio).

Where [4] appears, read: FIG. 3B, 1 μM, 5 μM and 10 μM, vs Mock.

Take `COc1cc2ncc(-c3ccccc3)nc2cc1OC` [AG1296]: in assay [1] (FIG. 3B, 1 μM vs 5 μM and 10 μM), the total cell number result was “higher cell numbers than that at concentrations of 5 μM and 10 μM”. In addition, in assay [1] (FIG. 3B, 1 μM, 5 μM and 10 μM), the “absolute number of proliferating LT-HSCs” value is recorded as “better effect” and the “effect on cell proliferation” value is recorded as “slightly inhibited cell proliferation”. Moreover, in assay [1] (setting [4]), the “absolute number of CD34+CD90+CD45RA- cells” value is on record as “significantly better than the Mock group” and the “absolute numbers of CD34+ cells” value was “lower than that in the mock group”. For the same compound, in assay [1] (FIG. 4B, 1 μM), the “absolute number of proliferating LT-HSCs relative to other groups” value was 1-2 times and the “effect on cell proliferation” value is reported as “slightly inhibited cell proliferation”. The “absolute number of CD34+ cells” value in assay [1] (FIG. 4B, 1 μM, vs Mock, 100 nM, 500 nM groups) is reported as “not significantly better than other groups”. The “absolute number of CD34+CD90+, and CD34+CD90+CD45RA- cells” value in assay [1] (FIG. 4B, 1 μM, vs other groups) is recorded as “significantly better than other groups”. Also, in assay [2], the “maintaining the proportion of CD34+, CD34+CD90+, and CD34+CD90+CD45RA- cells, vs Mock, UM171 and lower AG1296 concentrations” value is “significantly more effective than Mock group, UM171 group, AG1296 (500 nM) group and AG1296 (700 nM) group”; the “maintaining the proportion of CD34+, CD34+CD90+, and CD34+CD90+CD45RA- cells, vs SR1 group” value is “not as good as the SR1 group”; the “proportion of LT-HSCs relative to AG1296 (500 nM) group and AG1296 (700 nM) group” value is “about 1 time”; the “proportion of LT-HSCs relative to Mock group and UM171 group” value is “about 2 times”. Moreover, the “proportion of LT-HSCs, vs SR1 group” value in assay [2] is recorded as “not as good as SR1 group”. In assay [3] (1 μM), the “absolute number of CD34+CD90+, and CD34+CD90+CD45RA- cells” value was “showed superiority”; the “effect on cell proliferation” value is listed as “could inhibit cell proliferation”. Besides, in assay [3] (AG1296 at 1 μM, UM171 concentration not given), the “absolute number of CD34+ cells” value is reported as “not significantly better than other groups”.

(Values after US20240058387A1, “CULTURE MEDIUM COMPOSITION FOR AMPLIFYING AND MAINTAINING SELF-RENEWAL CAPACITY AND DIFFERENTIATION POTENTIAL OF HSCS AND APPLICATION THEREOF” (EDIGENE (GUANGZHOU) INC., priority 2020, published 2024).)
